Assay results published in US8629300B2, “Arylamine-substituted divinyl fluorenes and their use for electrophotographic applications, and for OLEDs (organic light emitting devices)” (Sensient Imaging Technologies GmbH, priority 2006, dated 2014).

Test: Solubility analysis in methylen chloride or THF
Type: physicochemical
Description: Compound 12 complies with the solubility requirements set by the industry of 1 g substance/6 ml methylen chloride or THF. This compound was scaled up to 35 g. The compound was brought to an HPLC purity of >99.5% by using conventional purification methods, like e.g. recrystallization or column chromatography.

- solubility (complies with the solubility requirements set by the industry): ≥ 1 g substance/6 ml
SMILES: Cc1ccc(N(c2ccc(C)cc2)c2ccc(/C=C/c3ccc4c(c3)C(C)(C)c3cc(/C=C/c5ccc(N(c6ccc(C)cc6)c6ccc(C)cc6)cc5)ccc3-4)cc2)cc1 [Compound 12, 2,7-Bis-(4-di-p-tolylaminophenylethenyl)-9,9-dimethyl-9H-fluorene]
